Test results published in PubChem BioAssay AID449750 (Broad Institute, 2010).
Active and inactive are the calls of the source. No rule for the calls is given here.

Assay: non-covalent RecA intein splicing inhibitors, dose response, biochemical, cell-free, fluorescence, secondary screen (AID 449750)

Row | Structure (SMILES) | AC50
1 | CC(C)NC(=S)NC(c1ccccc1)(c1ccccc1)c1ccccc1 | 27.9 µM
2 | O=[N+]([O-])c1cc([N+](=O)[O-])c2oc(-c3ccccc3)c(Br)c2c1O | 2.04 µM
3 | CN(CCC#N)C(=O)Cn1nc(Cc2ccncc2)c2ccccc2c1=O | > 38 µM (inactive)
4 | CSc1nc(-c2ccco2)nn1C(=O)c1cccs1 | > 38 µM (inactive)
5 | O=C(COC(=O)C1CC(=O)N(Cc2ccco2)C1)c1ccc(OC(=O)c2ccco2)cc1 (stereo not given) | > 38 µM (inactive)
6 | COc1cc(/C=C/c2cc[n+](C)cc2)ccc1OCC(=O)Nc1ccc(Cl)c(Cl)c1 | > 38 µM (inactive)
7 | O=C(CCl)N1N=C(c2cccs2)CC1c1ccco1 (stereo not given) | 5.44 µM
8 | Cn1nc(C(C)(C)C)cc1C(=O)Sc1cccc(Br)c1 | > 38 µM (inactive)
9 | Cc1cc(C)cc(OC(=O)CS(=O)c2ccc(C(F)(F)F)cc2[N+](=O)[O-])c1 (stereo not given) | > 38 µM (inactive)
10 | Cc1cccc(NC(=S)N/N=C2/CCCCc3ccccc32)c1 | > 38 µM (inactive)
11 | O=C(c1cc(F)c(F)cc1Cl)N1CCN(c2ccc([N+](=O)[O-])c3ncccc23)CC1 | > 38 µM (inactive)
12 | Cc1ccc(NC2=C(Cl)C(=O)OC2OC(=O)c2ccco2)cc1C (stereo not given) | > 38 µM (inactive)
13 | CCOC(=O)CSc1nnc(NCC(=O)OC)c(=O)[nH]1 | > 38 µM (inactive)
14 | O=C(CCl)N1CCN(S(=O)(=O)c2ccc3ccccc3c2)CC1 | 6.51 µM
15 | COC(=O)c1ccc(-c2ccc(C(c3c(C)[nH][nH]c3=O)c3c(C)[nH][nH]c3=O)o2)cc1 | 1.6 µM
16 | ONc1cccnc1-n1nc(C(F)(F)F)cc1C(F)(F)F | > 38 µM (inactive)
17 | CC1=NNC(=O)/C1=C\c1cn(-c2ccccc2)nc1-c1cccs1 | 9.64 µM
18 | CCCCCCCCCCOC(=O)Cn1c(COc2ccccc2)[n+](C)c2ccccc21 | 7.97 µM
19 | O=c1[nH]c2ccc(Cl)cc2c(-c2ccccc2)c1SC(=S)N1CCCCC1 | > 38 µM (inactive)
20 | COC(CN(C(=O)CCl)C(C(=O)NC1CCCC(C)C1C)c1ccc(C)cc1)OC (stereo not given) | 10.9 µM
21 | CC(C)(C)C1CCc2sc(C(=O)NNC(=O)CCl)cc2C1 (stereo not given) | 1.94 µM
22 | Cc1ccc(NC(=O)c2cc(NC(=O)/C=C\C(=O)O)ccc2N2CCCCC2)cc1 | 9.66 µM
23 | CCOC(=O)/C(C#N)=C1/SC(C)C(=O)N1c1ccc(Br)cc1 (stereo not given) | > 38 µM (inactive)
24 | O=c1c(Cl)c(Cl)cnn1Cc1ccc(F)cc1 | 35.3 µM
25 | COc1ccc(NC(=S)NC(NC(=O)CCl)C(Cl)(Cl)Cl)c([N+](=O)[O-])c1 (stereo not given) | 2.67 µM
26 | N#Cc1ncc(Cc2ccccc2)nc1C#N | > 38 µM (inactive)
27 | CC(C)(C)OC(=O)N1CC=C2C(C#N)=C(N)C(C#N)(C#N)C(c3cccs3)C2C1 (stereo not given) | > 12 µM (inactive)

Row | Structure (SMILES) | AC50
28 | O=C(N/N=C/c1coc2ccc(Cl)cc2c1=O)c1ccc(O)cc1 | > 38 µM (inactive)
29 | CCCc1[nH]nc2c1C(c1ccoc1)C(C#N)=C(N)O2 (stereo not given) | > 38 µM (inactive)
30 | CCOC(=O)c1c(NC(C)=O)sc2c1CCC(C=NCCCN(CC)CC)=C2Sc1ccccc1 | 0.311 µM
31 | CCCCn1[nH]c(-c2ccccc2)cc1=O | 8.57 µM
32 | [O-]C1=N/[N+](=C/c2ccccc2Cl)CC1 | > 38 µM (inactive)
33 | COc1cccc(Nc2c([N+](=O)[O-])cncc2[N+](=O)[O-])c1 | > 38 µM (inactive)
34 | COc1ccc(NC(=S)Nc2ccc3nsnc3c2)cc1 | 25.2 µM
35 | COc1cccc(C(=O)O/N=C(\N)c2ccc([N+](=O)[O-])cc2)c1OC | > 38 µM (inactive)
36 | O=c1[nH]c(/C=C/c2cccnc2)c([N+](=O)[O-])c(=O)[nH]1 | > 38 µM (inactive)
37 | CCCc1[nH]nc2c1C(c1ccc(OC(=O)N3CCOCC3)c(OC)c1)C(C#N)=C(N)O2 (stereo not given) | > 38 µM (inactive)
38 | CCOC(=O)c1c(CSC(=N)N)n(-c2ccc(C)cc2)c2cc(Br)c(OC(C)=O)cc12 | 8.36 µM
39 | O=C1C(Cl)=C(N2CCOCC2)C(=O)N1c1ccccc1F | > 38 µM (inactive)
40 | N#CC1(NC(=O)COC(=O)c2cc(O)c3ccccc3c2O)CCCCC1 | 10.2 µM
41 | O=c1cc(-c2ccccc2)[nH][nH]1 | 12.8 µM
42 | Cc1ccc(-c2cc(NC(=O)CCl)n(-c3ccccc3)n2)cc1 | 7.65 µM
43 | CCn1nc(C)c(C2C(C#N)=C(N)Oc3n[nH]c(C)c32)c1C (stereo not given) | > 38 µM (inactive)
44 | O=C(CCCN1C(=O)/C(=C/c2ccccc2)SC1=S)Nc1ccc(O)cc1 | > 38 µM (inactive)
45 | COC(CNC(=O)c1ccc2c3c(onc13)-c1ccccc1C2=O)OC | > 38 µM (inactive)
46 | Cc1ccc(NC(=O)c2cnc(SCC(=O)NCC3CCCO3)n(C)c2=O)cc1C (stereo not given) | > 38 µM (inactive)
47 | O=C(NCc1ccc2c(c1)OCO2)c1nc(S(=O)(=O)Cc2ccccc2)ncc1Cl | > 38 µM (inactive)
48 | COc1ccccc1CN1CCSCC1 | > 38 µM (inactive)
49 | O=C(NC1CCCCC1)C(c1cccnc1)N(C(=O)CCl)c1cccc(Cl)c1 (stereo not given) | 3 µM
50 | O=C(CCl)Nc1cccc(Oc2ccccc2)c1 | 6.15 µM
51 | Cc1ccc(NC(=O)c2sc3ncnc(N4CCN(c5ccccn5)CC4)c3c2C)c(C)c1 | > 38 µM (inactive)
52 | CCOc1cc(/C=C2\C(=O)N(c3ccc(C(N)=O)cc3)N=C2C)ccc1OC(=O)c1cccs1 | 2.76 µM
53 | C/C(CC(=O)Nc1cccnc1)=N\NC(=O)c1ccc([N+](=O)[O-])c(Cl)c1 | > 38 µM (inactive)
54 | O=c1c2c([nH]n1-c1ccccc1)CCSC2 | 36.5 µM

Row | Structure (SMILES) | AC50
55 | O=C1C(Br)=Cc2cccc3cccc1c23 | > 38 µM (inactive)
56 | CCN1CCN(c2c(Cl)cccc2NC(=O)c2ccc3c(c2)OCCO3)CC1 | > 38 µM (inactive)
57 | CC(=O)C12CC(C)=C(C)CC1CC1C3CCC4=CC(=O)CCC4(C)C3CCC12C (stereo not given) | 4.58 µM
58 | O=C(NC1(O)C(=O)c2ccccc2C1=O)c1ccccc1 | 9.46 µM
59 | Cc1cc(C(=O)c2ccc(C(C)(C)C)cc2)c(NC(=O)CCl)s1 | 9.8 µM
60 | Nc1ccc(N)c(C(=O)O)c1 | 21 µM
61 | Cn1nc(-c2ccc(Cl)cc2)nc2c(=O)n(C)c(=O)nc1-2 | 0.0579 µM
62 | O=C(N/N=C/c1cc(Cl)cc([N+](=O)[O-])c1O)c1ccccc1NS(=O)(=O)c1cccs1 | 22.6 µM
63 | CC(=O)c1c(Cl)nc2cccc3c2c1-c1ccccc1C3=O | > 38 µM (inactive)
64 | COc1cc(C(c2c(C)[nH][nH]c2=O)c2c(C)[nH][nH]c2=O)ccc1OC(C)C | 12 µM
65 | CC1=NN(c2cccc(Cl)c2)C(=O)C12CC(C)=C(C)CS2 (stereo not given) | 21.7 µM
66 | O=Cc1sc(=O)n(Cc2cccc(C(=O)O)c2)c1Cl | > 12 µM (inactive)
67 | CC(C)c1nnc(NC(=O)c2nc(S(=O)(=O)Cc3ccccc3F)ncc2Cl)s1 | > 38 µM (inactive)
68 | O=C(O)c1ccc([N+](=O)[O-])c2c1C(=O)c1ccccc1C2=O | > 38 µM (inactive)
69 | CCCCn1c(NC(=O)c2ccco2)c(S(=O)(=O)c2ccc(C)cc2)c2nc3ccccc3nc21 | > 38 µM (inactive)
70 | O=C(Oc1ccc(C(=S)N2CCOCC2)cc1)c1ccc([N+](=O)[O-])cc1[N+](=O)[O-] | > 38 µM (inactive)
71 | CC(=O)N(C)C1=C(N2CCOCC2)C(=O)c2ccccc2C1=O | 15.7 µM
72 | CCOC(=O)c1sc(N(Cc2ccccc2)C(=O)CCl)nc1C | 5.79 µM
73 | Fc1ccc(Nc2nc(Oc3ccccc3F)nc(N3CCCC3)n2)cc1 | > 38 µM (inactive)
74 | O=C(CCl)Nc1cc(S(=O)(=O)N2CCCCCC2)ccc1Cl | 4.92 µM
75 | O=C(CCl)N(c1ccc(Cl)cc1)c1c[nH]c2ccccc12 | 0.746 µM
76 | Cc1[nH]n(C(N)=S)c(=O)c1C(c1ccccc1)C(C#N)C#N (stereo not given) | > 38 µM (inactive)
77 | O=C(NCc1ccc2c(c1)OCO2)c1nc(S(=O)(=O)Cc2ccccc2F)ncc1Cl | > 38 µM (inactive)
78 | Cc1oc2c(c1C(=O)N1CCOCC1)C(=O)c1ccccc1C2=O | 9.55 µM
79 | c1ccc(-c2ccc(C3CCCN3)cc2)cc1 (stereo not given) | > 38 µM (inactive)
80 | COc1cc(C(=O)CSc2nnc(-c3ccc(O)cc3)n2CC2CCCO2)ccc1NC(C)=O (stereo not given) | > 38 µM (inactive)
81 | CC(C)NC(=S)NC1(C)CCS(=O)(=O)C1 (stereo not given) | > 38 µM (inactive)

Row | Structure (SMILES) | AC50
82 | Cc1ccc(-n2nnnc2CCl)cc1 | 24 µM
83 | O=c1cc(-c2ccc(C3CCCCC3)cc2)[nH][nH]1 | 7.41 µM
84 | Cc1ccc(C2C(C#N)=C(N)Oc3nc(-c4ccccc4)[nH]c32)o1 (stereo not given) | > 38 µM (inactive)
85 | Cc1cc(-c2[nH]nc3c2C(c2ccc(Cl)cc2)C(C#N)=C(N)O3)c(C)s1 (stereo not given) | 15.2 µM
86 | N#Cc1c(N2CCCC2)nc(N)c2c(N)nc(N3CCCC3)cc12 | 0.774 µM
87 | Cc1ccc(CN=Cc2[nH]c3ccc(Br)c(Cl)c3c2O)cc1 | 22.9 µM
88 | Nc1nn2c(-c3ccccc3)cc(=O)[nH]c2c1N=Nc1ccc(O)cc1 | > 38 µM (inactive)
89 | Cc1nn(-c2ccccc2)c2c1C(c1ccc(F)cc1)C(C#N)=C(N)O2 (stereo not given) | 28.4 µM
90 | CS(=O)(=O)c1ncc(Cl)c(C(=O)Nc2ccc(N3CCOCC3)cc2)n1 | > 38 µM (inactive)
91 | N#CC1=C(N)C(C#N)(C#N)C(c2cccnc2)C2CN(C(=O)OCc3ccccc3)CC=C12 (stereo not given) | > 38 µM (inactive)
92 | COc1cccc(C(=O)Nc2nc(SCc3ccc(Cl)cc3)n[nH]2)c1 | > 38 µM (inactive)
93 | CC(C)C[C@H](N)c1nnc(S(=O)(=O)Cc2ccc(F)cc2)o1 | > 38 µM (inactive)
94 | COc1ccc(CC(=O)N/N=C(/C)CC(=O)N(C)c2ccccc2)cc1 | > 38 µM (inactive)
95 | Cc1nnc(N/N=C/c2cccc(OCc3ccc(Cl)c(Cl)c3)c2)n1N | 23.4 µM
96 | COc1cc2c(cc1OC)-c1c(OC)c(OC)cc3c1C(C2)N(C)CC3 (stereo not given) | 10.3 µM
97 | O=C(O)/C=C/C(=O)Nc1ccc(C2(c3ccc(NC(=O)/C=C/C(=O)O)cc3)c3ccccc3-c3ccccc32)cc1 | 4.61 µM
98 | COC(=O)c1nc(-c2ccc3c(n2)C(=O)C(N)=C(OC)C3=O)c(N)c(-c2ccc(OC)c(OC)c2O)c1C | 0.763 µM
99 | O=C(O)/C=C\C(=O)Nc1ccc(Oc2ccc(Br)cc2)cc1 | 15.2 µM
100 | COc1ccc2[nH]c3c(Cl)ncnc3c2c1 | > 38 µM (inactive)
101 | Cc1ccc(SC(=O)c2c(C)noc2-c2cc(C)on2)cc1 | > 38 µM (inactive)
102 | CCCc1[nH]nc2c1C(c1ccc(OCCN3CCOCC3)c(OCC)c1)C(C#N)=C(N)O2 (stereo not given) | > 38 µM (inactive)
103 | COC(=O)c1ccccc1NC(=S)NC(=O)c1ccc(C)cc1 | > 38 µM (inactive)
104 | Nc1c(N2CCCC2)cc(Cl)c2nonc12 | 4.13 µM
105 | CCOC(=O)c1c(CC(C)C)csc1NC(=O)CCl | 3.33 µM
